Data taken from US8329735B2, “Tetrazole compounds which selectively modulate the CB2 receptor” (Boehringer Ingelheim International GmbH, priority 2010, dated 2012).
Converted amounts (≈) assume the structure as drawn. Read-outs that look alike come from different tables or passages of the source.

Legend:
human CB2R = target: T1, human CB2R (Homo sapiens, UniProt P34972); test: CB2R mediated modulation of cAMP synthesis; assay type: cell-based
T1 construct: host or cells: CHO cells
Method: Compounds of the invention are evaluated for their CB2 agonist or inverse agonistic activity in accordance with the following experimental method.
(§1) CHO cells expressing human CB2R (Euroscreen) are plated at a density of 5000 cells per well in 384 well plates and incubated overnight at 37° C. After removing the media, the cells are treated with test compounds diluted in stimulation buffer containing 1 mM IBMX, 0.25% BSA and 10 uM Forskolin. The assay is incubated for 30 minutes at 37° C. Cells are lysed and the cAMP concentration is measured using DiscoverX—XS cAMP kit, following the manufacturer's protocol. In this setting, agonists will decrease forskolin induced production of cAMP while inverse agonists will further increase forskolin induced production of cAMP. EC50 of agonists are calculated as follows. The maximal amount of cAMP produced by forskolin compared to the level of cAMP inhibited by 1 uM CP55940 is defined as 100%. The EC50 value of each test compound is determined as the concentration at which 50% of the forskolin-stimulated cAMP synthesis is inhibited. Data is analyzed using a four-parameter logistic model. (Model 205 of XLfit 4.0).

human CB1R = target: T2, human CB1R (Homo sapiens, UniProt P21554); test: CB1R mediated modulation of cAMP synthesis; assay type: cell-based; details: CHO cells expressing human CB1R, forskolin-stimulated cAMP
T2 construct: host or cells: CHO cells
T2 sequence (P21554 whole entry): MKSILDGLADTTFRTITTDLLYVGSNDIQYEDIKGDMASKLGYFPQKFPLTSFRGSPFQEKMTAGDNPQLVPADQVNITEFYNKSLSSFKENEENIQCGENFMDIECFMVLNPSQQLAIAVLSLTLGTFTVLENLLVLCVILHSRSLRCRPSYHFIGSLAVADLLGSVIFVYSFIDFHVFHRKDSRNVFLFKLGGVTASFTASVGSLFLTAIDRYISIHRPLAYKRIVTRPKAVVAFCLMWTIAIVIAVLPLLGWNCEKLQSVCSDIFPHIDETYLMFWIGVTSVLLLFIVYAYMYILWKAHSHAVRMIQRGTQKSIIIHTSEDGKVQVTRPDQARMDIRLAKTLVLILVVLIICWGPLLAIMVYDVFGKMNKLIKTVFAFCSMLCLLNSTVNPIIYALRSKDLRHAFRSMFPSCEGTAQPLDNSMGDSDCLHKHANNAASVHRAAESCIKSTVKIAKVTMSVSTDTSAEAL
Method: Compounds of the invention are evaluated for their CB1 agonist or inverse agonistic activity in accordance with the following experimental method.
as §1, with “CB1R” for “CB2R”

[1] = Human microsomal stability assay; assay type: in vitro ADME; details: human liver microsomes 1 mg protein/ml, 1 uM compound, pH 7.4
Method: The double time point high throughput screen for human liver microsomal metabolic stability is used to measure the in vitro metabolism of test compounds by human liver microsomal enzymes. The data collected are analyzed to calculate a half-life (t½, min) and clearance (expressed as percent hepatic blood flow, % QH) for test compounds. The assay is performed in 50 mM potassium phosphate buffer, pH 7.4 and 2.5 mM NADPH. Test samples are dissolved in DMSO and acetonitrile for a final assay concentration of 1 uM. Human liver microsomes are diluted in assay buffer to a final assay concentration of 1 mg protein/ml. Compound solution and microsome suspension are added to assay buffer for a final incubation volume of 350 ul. The preparation is incubated for 5 min in a 37° C. water bath. The reaction is started by the addition of NADPH. Volumes of 80 ul are removed from the incubation mix at 0, 5, and 30 min after the start of the reaction and added to 160 ul acetonitrile. The supernatant is transferred to 0.25 mm glass fiber filter plates and centrifuged for 5 min at 3000 rpm. Injection volumes of 10 ul are typically added to HPLC columns with formic acid in water or acetonitrile at a flow rate of 0.3 ml/min. Percent loss of parent compound is calculated from the area under each time point to determine the half-life and clearance. Preferred compounds of the invention will have a human liver microsomal stability of <25% QH.

[2] = Aqueous (equilibrium) solubility assay; assay type: physicochemical; details: aqueous buffer, thermodynamic from solid, 48 hrs equilibrium
Method: The equilibrium solubility of compounds is determined in pH 2, 4.5, 6.8 buffers. Prior to solubility measurement, the crystalline/amorphous characteristics of the sample are determined by observing the powder form under polarized light microscope. Solubility is only measured when compound is crystalline.
Approximately 2 mg of compound are weighed out into a vial and 1-2 ml of buffer are added into the vial (pHs 2 & 4.5, use 1 ml and for pHs 6.8 and 7.4 use 2 ml of buffer). The vial is rotated for 48 hrs protected from light. After 48 hrs, the sample is transferred into an eppendorf tube and centrifuged for 10 minutes at 14,000 RPM, if the supernatant is not clear, it is filtered (PVDF filter). The clear supernatant is diluted if necessary, before analyzing via HPLC. The final pH of the supernatant or the filtrate is measured and reported. The external calibration curve is used to determine the solubility value. The percentage of extraneous peaks relative to the parent peak is monitored in the standard solution as well as the solubility sample. Preferred compounds of the invention will have a solubility of >100 μg/ml.

[3] = system: Salmonella bacterial strains TA98 and TA100; test: Ames mutagenicity assay: bacteria reverse mutation screening assay; assay type: cell-based; details: TA98 and TA100, presence or absence of S9
Method: The Ames ^(1) Salmonella bacterial strains used in the abbreviated screening assay ^(2) are TA98 and TA100. Actively growing (log phase) bacteria are incubated with test compound and trace amounts of histidine in the presence or absence of S9 for 48 hours on minimal agar plates. Test compound is dissolved in DMSO to a final concentration of 100 mg/ml. The stock is serially diluted to yield concentrations of 100, 50, 25 12.5 and 6.3 mg/ml. Fifty microliters of dosing solution is combined with top agar and buffer (or S9 mix) and poured on duplicate plates to yield effective doses of 5000, 2500, 1250, 625 and 313 μg/plate. Positive and negative controls plates are included. Formation of colonies after 48 hr incubation at 37° C. is an indication of genetic reversion, either arising spontaneously or caused by the test compound. The average number of spontaneous colonies growing on control plates is compared to the number of colonies on test plates. A fold increase of 2-3× over background is generally considered a positive response for mutagenicity. • 1. Maron, D. M. and Ames, B. N. (1983). “Revised Methods for the Salmonella Mutagenicity Test”. Mutat. Res. 113, 173-215. • 2. D. A. Burke, D. J. Wedd, and B. Burlinson (1996). “Use of the Miniscreen assay to screen novel compounds for bacterial mutagenicity in the pharmaceutical industry”. Mutagenesis 11: 201-205.

[4] = Table XI, read-out: CB1 CAMP EC50
[5] = pH 4.5 buffer, read-out: solubility at pH 4.5
[6] = pH 6.8 buffer, read-out: solubility at pH 6.8
[7] = Table XI, CHO cells expressing human CB2R, forskolin-stimulated cAMP, read-out: CB2 CAMP EC50

T1 sequence (P34972 whole entry): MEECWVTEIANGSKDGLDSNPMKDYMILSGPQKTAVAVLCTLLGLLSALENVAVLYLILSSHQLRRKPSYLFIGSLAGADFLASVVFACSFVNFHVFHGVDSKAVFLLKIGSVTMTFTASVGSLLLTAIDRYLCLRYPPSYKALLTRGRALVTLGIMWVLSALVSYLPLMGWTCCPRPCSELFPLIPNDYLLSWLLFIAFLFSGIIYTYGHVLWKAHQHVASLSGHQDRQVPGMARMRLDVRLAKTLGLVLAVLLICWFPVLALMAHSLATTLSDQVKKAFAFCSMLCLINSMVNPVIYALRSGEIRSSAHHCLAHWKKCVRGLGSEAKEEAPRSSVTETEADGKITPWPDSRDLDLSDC

With `CC[C@H](C)S(=O)(=O)C(C)(C)C(=O)Nc1nnn(C(C)(C)C)n1` [Table II compound 5] the EC50 (human CB2R; Table II, CHO cells expressing human CB2R, forskolin-stimulated cAMP, read-out: CB2 EC50) was 101 nM, the EC50 (human CB1R; Table II, read-out: CB1 EC50) was greater than 50000 nM and the EC50 (human CB1R; [4]) was greater than 50000 nM. For the same compound, the “HLM clearance (percent hepatic blood flow)” value [1] was less than 30.10 QH %, the solubility at 48 h [2, 5] was 1210 µg/mL (≈ 3640 µM) and the solubility at 48 h [2, 6] was 1150 µg/mL (≈ 3470 µM). For the same compound, the Ames [3] was “negative”.

With `Cn1nc(C(C)(C)C)cc1NC(=O)C(C)(C)S(=O)(=O)CC1CCOCC1` [Example 59 WO08039645] the EC50 (human CB2R; [7]) was 140 nM, the EC50 (human CB1R; [4]) was greater than 20000 nM and the “HLM clearance (percent hepatic blood flow)” value [1] was less than 30.10 QH %. The solubility at 48 h [2, 5] was 396 µg/mL (≈ 1030 µM), the solubility at 48 h [2, 6] was 452 µg/mL (≈ 1170 µM) and the Ames [3] was “positive”.

For `CCC(C)S(=O)(=O)C(C)(C)C(=O)Nc1cc(C(C)(C)C)nn1C` (centres unmarked) [Example 43 WO08039645], the EC50 (human CB2R; [7]) was 642 nM, the EC50 (human CB1R; [4]) was greater than 20000 nM and the “HLM clearance (percent hepatic blood flow)” value [1] was 61 QH %. For the same compound, the solubility at 48 h [2, 5] was 1260 µg/mL (≈ 3680 µM), the solubility at 48 h [2, 6] was 1160 µg/mL (≈ 3370 µM) and the Ames [3] was “positive”.

In the case of `CC(C)(C)n1nnc(NC(=O)C(C)(C)S(=O)(=O)CC2CCOCC2)n1` [Table II compound 2], the EC50 (human CB2R) is reported as 50 nM, the EC50 (human CB1R; CB1 CAMP EC50, Table XI) is reported as greater than 50000 nM and the EC50 (human CB1R; CB1 EC50, Table II) is reported as greater than 50000 nM. For the same compound, the “HLM clearance (percent hepatic blood flow)” value [1] was less than 30.10 QH %, the solubility at 48 h [2, 5] was 391 µg/mL (≈ 1050 µM) and the solubility at 48 h [2, 6] was 353 µg/mL (≈ 945 µM). For the same compound, the Ames [3] was “negative”.

With `CCC(C)S(=O)(=O)C(C)(C)C(=O)Nc1nc(C(C)(C)C)cs1` (centres unmarked) [Example 44 WO08039645] the EC50 (human CB2R) was 14 nM, the EC50 (human CB1R; CB1 CAMP EC50, Table XI) was 10700 nM and the “HLM clearance (percent hepatic blood flow)” value [1] was 67 QH %. For the same compound, the solubility at 48 h [2, 5] was 13 µg/mL (≈ 37.5 µM) and the Ames [3] was “negative”.

Work on `CC(C)(C)n1nnc(NC(=O)C(C)(C)S(=O)(=O)C2CCOCC2)n1` [Table II compound 1] yielded an EC50 (human CB2R) of 21 nM, an EC50 (human CB1R; CB1 CAMP EC50, Table XI) greater than 50000 nM and an EC50 (human CB1R; CB1 EC50, Table II) greater than 20000 nM. For the same compound, the “HLM clearance (percent hepatic blood flow)” value [1] was less than 30.10 QH %, the solubility at 48 h [2, 5] was greater than 2120 µg/mL and the solubility at 48 h [2, 6] was greater than 1750 µg/mL. For the same compound, the Ames [3] was “negative”.

For `CC(C)(C)c1cc(NC(=O)C(C)(C)S(=O)(=O)c2ccc(F)cc2)no1` [Example 130 WO08014199], the EC50 (human CB2R) was 2.4 nM, the EC50 (human CB1R; CB1 CAMP EC50, Table XI) was 2240 nM and the “HLM clearance (percent hepatic blood flow)” value [1] was 68 QH %. The solubility at 48 h [2, 5] was 5.2 µg/mL (≈ 14.1 µM), the solubility at 48 h [2, 6] was 4.7 µg/mL (≈ 12.8 µM) and the Ames [3] was “negative”.

In the case of `CC(C)(C)c1csc(NC(=O)C(C)(C)S(=O)(=O)c2ccc(F)cc2)n1` [Example 252 WO08014199], the EC50 (human CB2R) is reported as 0.401 nM, the EC50 (human CB1R; CB1 CAMP EC50, Table XI) is reported as 934 nM and the “HLM clearance (percent hepatic blood flow)” value [1] is reported as 85 QH %. For the same compound, the solubility at 48 h [2, 5] was 1.74 µg/mL (≈ 4.53 µM), the solubility at 48 h [2, 6] was 1.62 µg/mL (≈ 4.21 µM) and the Ames [3] was “negative”.

Work on `CO[C@H]1CC[C@@H](S(=O)(=O)C(C)(C)C(=O)Nc2nnn(C(C)(C)C)n2)CC1` yielded an EC50 (human CB2R) of 56 nM and an EC50 (human CB1R; CB1 EC50, Table II) greater than 50000 nM.

In the case of `Cn1nc(C(C)(C)C)cc1NC(=O)C(C)(C)S(=O)(=O)C1CCOCC1` [Example 69 WO08039645], the EC50 (human CB2R; [7]) is reported as 216 nM, the EC50 (human CB1R; [4]) is reported as greater than 20000 nM and the “HLM clearance (percent hepatic blood flow)” value [1] is reported as less than 30.10 QH %. For the same compound, the solubility at 48 h [2, 5] was 1040 µg/mL (≈ 2810 µM), the solubility at 48 h [2, 6] was 1230 µg/mL (≈ 3320 µM) and the Ames [3] was “positive”.

For `CCC(C)S(=O)(=O)C(C)(C)C(=O)Nc1cc(C(C)(C)C)on1` (centres unmarked) [Example 42 WO08039645], the EC50 (human CB2R) was 19 nM, the EC50 (human CB1R; CB1 CAMP EC50, Table XI) was greater than 20000 nM and the “HLM clearance (percent hepatic blood flow)” value [1] was 68 QH %. For the same compound, the solubility at 48 h [2, 5] was 20 µg/mL (≈ 60.5 µM) and the Ames [3] was “negative”.

In the case of `Cn1nc(C(C)(C)C)cc1NC(=O)C(C)(C)S(=O)(=O)c1ccc(F)cc1` [Example 251 WO08014199], the EC50 (human CB2R) is reported as 2.57 nM, the EC50 (human CB1R; CB1 CAMP EC50, Table XI) is reported as 10900 nM and the “HLM clearance (percent hepatic blood flow)” value [1] is reported as 30 QH %. The solubility at 48 h [2, 5] was 137 µg/mL (≈ 359 µM), the solubility at 48 h [2, 6] was 148 µg/mL (≈ 388 µM) and the Ames [3] was “positive”.

With `CC(C)(C)n1nnc(NC(=O)C(C)(C)S(=O)(=O)[C@H]2CC[C@@H](O)CC2)n1` the EC50 (human CB2R) was 8.7 nM and the EC50 (human CB1R; CB1 EC50, Table II) was greater than 50000 nM.

`CC(C)(C)n1nnc(NC(=O)C(C)(C)S(=O)(=O)CC[C@@H]2CCOC2)n1` gave an EC50 (human CB2R) of 12 nM and an EC50 (human CB1R; CB1 EC50, Table II) of roughly 50000 nM.

`CC(C)(C)n1nnc(NC(=O)C(C)(C)S(=O)(=O)c2ccc(F)cc2)n1` [Table II compound 6] gave an EC50 (human CB2R) of 22 nM, an EC50 (human CB1R; CB1 CAMP EC50, Table XI) of 39500 nM and an EC50 (human CB1R; CB1 EC50, Table II) of 39500 nM. The “HLM clearance (percent hepatic blood flow)” value [1] was less than 30 QH %, the solubility at 48 h [2, 5] was 133 µg/mL (≈ 360 µM) and the solubility at 48 h [2, 6] was 122 µg/mL (≈ 330 µM). For the same compound, the Ames [3] was “negative”.
